# From ChEMBL document CHEMBL5696443 (Clin Cancer Res, 2016)
# Activity calls are given as the source filed them. The rule behind the calls is not given here.
# Key:
# [1] = target: Serine/threonine-protein kinase TBK1 (Homo sapiens) (UniProt Q9UHD2); assay: Inhibition of human TBK1 at 1 uM using MBP as substrate in presence of [gamma33P]-ATP by HotSpot assay relative to control
# [2] = target: Tyrosine-protein kinase Tec (Homo sapiens) (UniProt P42680); assay: Inhibition of human TEC at 1 uM using poly (Glu, Tyr)4:1 as substrate in presence of [gamma33P]-ATP by HotSpot assay relative to control
# [3] = target: RAC-gamma serine/threonine-protein kinase (Homo sapiens) (UniProt Q9Y243); assay: Inhibition of human AKT3 at 1 uM using KGSGSGRPRTSSFAEG as substrate in presence of [gamma33P]-ATP by HotSpot assay relative to control
# [4] = target: Serine/threonine-protein kinase 4 (Homo sapiens, UniProt Q13043); assay: Inhibition of human STK4 using KKSRGDYMTMQIG as substrate in presence of [gamma33P]-ATP by HotSpot assay
# [5] = target: Tyrosine-protein kinase Blk (Homo sapiens, UniProt P51451); assay: Inhibition of human BLK using poly (Glu, Tyr)4:1 as substrate in presence of [gamma33P]-ATP by HotSpot assay
# [6] = target: Serine/threonine-protein kinase Nek11 (Homo sapiens) (UniProt Q8NG66); assay: Inhibition of human NEK11 at 1 uM using MBP as substrate in presence of [gamma33P]-ATP by HotSpot assay relative to control
# [7] = Toxicity in CB-17/SCID mouse implanted with ALK positive mouse BaF3 cells expressing EML4-ALK G1202R mutant assessed as effect on body weight at 25 to 50 mg/kg, po administered once daily and measured after 6 days; format: organism-based; conditions: in vivo, 144 h, dose 25-50 mg/kg, time 6 day
# [8] = test system: EML4-ALK (Homo sapiens), Q9UM73+Q9HC35 [E1210K]; conditions: BaF3, time 3-5 weeks
# [9] = target: Protein-tyrosine kinase 2-beta (Homo sapiens, UniProt Q14289); assay: Inhibition of human PTK2B using poly (Glu, Tyr)4:1 as substrate in presence of [gamma33P]-ATP by HotSpot assay
# [10] = target: Calcium/calmodulin-dependent protein kinase type IV (Homo sapiens) (UniProt Q16566); assay: Inhibition of human CAMK4 at 1 uM using KKLNRTLSFAEPG as substrate in presence of [gamma33P]-ATP by HotSpot assay relative to control
# [11] = target: Calcium/calmodulin-dependent protein kinase kinase 1 (Homo sapiens) (UniProt Q8N5S9); assay: Inhibition of human CAMKK1 at 1 uM using MBP as substrate in presence of [gamma33P]-ATP by HotSpot assay relative to control
# [12] = target: Receptor tyrosine-protein kinase erbB-4 (Homo sapiens, UniProt Q15303); assay: Inhibition of human ERBB4 using poly (Glu, Tyr)4:1 as substrate in presence of [gamma33P]-ATP by HotSpot assay
# [13] = target: Interleukin-1 receptor-associated kinase 1 (Homo sapiens) (UniProt P51617); assay: Inhibition of human IRAK1 at 1 uM using MBP as substrate in presence of [gamma33P]-ATP by HotSpot assay relative to control
# [14] = target: CDK9/cyclin T1 (Homo sapiens) (UniProt O60563+P50750); assay: Inhibition of human CDK9/CyclinT1 at 1 uM using KTFCGTPEYLAPEVRREPRILSEEEQEMFRDFDYIADWC as substrate in presence of [gamma33P]-ATP by HotSpot assay relative to control; format: protein-complex assay
# [15] = target: Tyrosine-protein kinase Mer (Homo sapiens, UniProt Q12866); assay: Inhibition of human MERTK using poly (Glu, Tyr)4:1 as substrate in presence of [gamma33P]-ATP by HotSpot assay
# [16] = target: Serine/threonine-protein kinase PLK2 (Homo sapiens) (UniProt Q9NYY3); assay: Inhibition of human PLK2 at 1 uM using casein as substrate in presence of [gamma33P]-ATP by HotSpot assay relative to control
# [17] = test system: EML4-ALK (Homo sapiens), Q9UM73+Q9HC35 [S1206Y]; conditions: BaF3, dose 500.0 nmol/L, time 3-5 weeks
# Mus musculus = assay: In vivo inhibition of ALK phosphorylation in SCID Beige mouse xenografted with ALK positive human KARPAS-299 cells at 10 to 50 mg/kg, po administered once daily for 4 days and measured 24 hrs after last dose by ELISA; format: functional, organism-based; conditions: dose 10-50 mg/kg, time 5.0 day
# [18] = target: Tyrosine-protein kinase Lyn (Homo sapiens, UniProt P07948); assay: Inhibition of human LYN using poly (Glu, Tyr)4:1 as substrate in presence of [gamma33P]-ATP by HotSpot assay
# [19] = test system: EML4-ALK (Homo sapiens), Q9UM73+Q9HC35 [D1203N]; conditions: BaF3, time 3-5 weeks
# [20] = target: CDK6/cyclin D1 (Homo sapiens) (UniProt P24385+Q00534); assay: Inhibition of human CDK6/CyclinD1 at 1 uM using RB protein as substrate in presence of [gamma33P]-ATP by HotSpot assay relative to control; format: protein-complex assay
# [21] = target: Serine/threonine-protein kinase PAK 2 (Homo sapiens) (UniProt Q13177); assay: Inhibition of human PAK2 at 1 uM using RRRLSFAEPG as substrate in presence of [gamma33P]-ATP by HotSpot assay relative to control
# [22] = target: Proto-oncogene tyrosine-protein kinase receptor Ret (Homo sapiens, UniProt P07949, V804M); assay: Inhibition of human RET V804M mutant using RRRRRRRRRRRVYSTDYYRLFNPS as substrate in presence of [gamma33P]-ATP by HotSpot assay
# [23] = target: Serine/threonine-protein kinase 24 (Homo sapiens) (UniProt Q9Y6E0); assay: Inhibition of human STK24 at 1 uM using MBP as substrate in presence of [gamma33P]-ATP by HotSpot assay relative to control
# [24] = test system: EML4-ALK (Homo sapiens), Q9UM73+Q9HC35 [L1196M]; conditions: BaF3, dose 500.0 nmol/L, time 3-5 weeks
# [25] = target: Death-associated protein kinase 2 (Homo sapiens) (UniProt Q9UIK4); assay: Inhibition of human DAPK2 at 1 uM using KKLNRTLSFAEPG as substrate in presence of [gamma33P]-ATP by HotSpot assay relative to control
# [26] = target: Serine/threonine-protein kinase TAO1 (Homo sapiens, UniProt Q7L7X3); assay: Inhibition of human TAOK1 using MBP as substrate in presence of [gamma33P]-ATP by HotSpot assay
# [27] = target: Tyrosine-protein kinase Fes/Fps (Homo sapiens, UniProt P07332); assay: Inhibition of human FES using poly (Glu, Tyr)4:1 as substrate in presence of [gamma33P]-ATP by HotSpot assay
# Serine/threonine-protein kinase TAO1, sequence (Q7L7X3 whole entry): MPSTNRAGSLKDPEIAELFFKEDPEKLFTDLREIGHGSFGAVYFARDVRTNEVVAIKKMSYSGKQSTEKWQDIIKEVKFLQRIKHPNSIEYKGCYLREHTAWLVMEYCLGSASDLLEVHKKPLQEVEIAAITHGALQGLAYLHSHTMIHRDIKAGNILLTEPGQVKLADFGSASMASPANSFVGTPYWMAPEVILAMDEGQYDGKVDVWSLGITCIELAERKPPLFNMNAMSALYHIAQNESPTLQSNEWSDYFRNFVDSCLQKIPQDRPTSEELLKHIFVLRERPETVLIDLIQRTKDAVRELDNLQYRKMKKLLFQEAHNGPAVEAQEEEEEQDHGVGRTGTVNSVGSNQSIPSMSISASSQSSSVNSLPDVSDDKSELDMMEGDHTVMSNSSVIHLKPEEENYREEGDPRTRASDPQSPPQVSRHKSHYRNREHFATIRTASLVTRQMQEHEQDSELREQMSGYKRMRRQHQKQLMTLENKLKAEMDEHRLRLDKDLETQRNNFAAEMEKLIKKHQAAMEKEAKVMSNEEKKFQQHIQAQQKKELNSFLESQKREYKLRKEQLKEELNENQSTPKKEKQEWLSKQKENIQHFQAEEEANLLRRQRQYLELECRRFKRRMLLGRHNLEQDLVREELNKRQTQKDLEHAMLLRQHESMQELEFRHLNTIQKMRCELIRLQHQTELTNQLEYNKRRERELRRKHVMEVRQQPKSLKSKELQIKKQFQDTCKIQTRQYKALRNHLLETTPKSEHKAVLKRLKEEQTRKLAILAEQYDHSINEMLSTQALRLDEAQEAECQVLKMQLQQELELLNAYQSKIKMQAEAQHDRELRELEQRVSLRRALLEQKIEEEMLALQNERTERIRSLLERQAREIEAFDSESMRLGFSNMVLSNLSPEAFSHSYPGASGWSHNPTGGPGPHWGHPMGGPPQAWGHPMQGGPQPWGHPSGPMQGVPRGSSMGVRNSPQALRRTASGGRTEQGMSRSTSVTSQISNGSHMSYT
# Serine/threonine-protein kinase PAK 2 (Homo sapiens), sequence (Q13177 whole entry): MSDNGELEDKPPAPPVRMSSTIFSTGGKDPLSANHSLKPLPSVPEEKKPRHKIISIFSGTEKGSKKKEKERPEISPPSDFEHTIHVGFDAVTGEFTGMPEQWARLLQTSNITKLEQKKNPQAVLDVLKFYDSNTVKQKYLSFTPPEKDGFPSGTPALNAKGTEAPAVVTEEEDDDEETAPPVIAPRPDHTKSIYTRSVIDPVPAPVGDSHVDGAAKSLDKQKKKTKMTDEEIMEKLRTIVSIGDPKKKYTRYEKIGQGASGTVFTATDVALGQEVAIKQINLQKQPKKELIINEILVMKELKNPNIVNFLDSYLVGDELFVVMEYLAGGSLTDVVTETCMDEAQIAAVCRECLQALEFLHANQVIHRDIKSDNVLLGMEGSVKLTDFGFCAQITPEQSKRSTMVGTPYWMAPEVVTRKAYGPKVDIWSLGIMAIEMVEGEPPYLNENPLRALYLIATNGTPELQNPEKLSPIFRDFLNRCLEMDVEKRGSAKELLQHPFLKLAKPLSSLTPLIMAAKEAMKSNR
# Serine/threonine-protein kinase 24 (Homo sapiens), sequence (Q9Y6E0 whole entry, looked up): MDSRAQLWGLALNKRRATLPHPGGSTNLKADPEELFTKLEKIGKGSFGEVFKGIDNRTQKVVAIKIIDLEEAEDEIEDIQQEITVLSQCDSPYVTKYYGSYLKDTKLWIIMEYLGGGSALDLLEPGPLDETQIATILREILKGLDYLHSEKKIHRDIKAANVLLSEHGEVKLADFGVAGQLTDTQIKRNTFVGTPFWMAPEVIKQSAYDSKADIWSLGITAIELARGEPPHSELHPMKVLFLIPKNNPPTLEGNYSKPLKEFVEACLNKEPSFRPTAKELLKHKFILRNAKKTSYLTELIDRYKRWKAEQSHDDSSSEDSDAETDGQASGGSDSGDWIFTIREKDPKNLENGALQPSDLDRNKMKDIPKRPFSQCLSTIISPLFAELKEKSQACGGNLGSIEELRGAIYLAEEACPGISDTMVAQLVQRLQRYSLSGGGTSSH
# Serine/threonine-protein kinase 4, sequence (Q13043 whole entry): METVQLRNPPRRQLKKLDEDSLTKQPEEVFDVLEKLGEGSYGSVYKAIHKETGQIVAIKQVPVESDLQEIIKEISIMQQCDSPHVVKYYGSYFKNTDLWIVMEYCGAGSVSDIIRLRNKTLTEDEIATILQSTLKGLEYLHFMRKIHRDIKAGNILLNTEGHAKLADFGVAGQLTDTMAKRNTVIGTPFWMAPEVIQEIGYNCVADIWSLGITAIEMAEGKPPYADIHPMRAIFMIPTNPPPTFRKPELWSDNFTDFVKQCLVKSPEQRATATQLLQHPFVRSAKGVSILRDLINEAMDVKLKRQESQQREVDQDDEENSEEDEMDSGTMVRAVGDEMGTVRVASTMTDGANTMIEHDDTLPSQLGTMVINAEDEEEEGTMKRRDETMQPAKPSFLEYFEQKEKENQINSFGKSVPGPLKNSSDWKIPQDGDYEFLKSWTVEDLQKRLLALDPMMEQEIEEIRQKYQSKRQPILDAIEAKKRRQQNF
# Serine/threonine-protein kinase PLK2 (Homo sapiens), sequence (Q9NYY3 whole entry, looked up): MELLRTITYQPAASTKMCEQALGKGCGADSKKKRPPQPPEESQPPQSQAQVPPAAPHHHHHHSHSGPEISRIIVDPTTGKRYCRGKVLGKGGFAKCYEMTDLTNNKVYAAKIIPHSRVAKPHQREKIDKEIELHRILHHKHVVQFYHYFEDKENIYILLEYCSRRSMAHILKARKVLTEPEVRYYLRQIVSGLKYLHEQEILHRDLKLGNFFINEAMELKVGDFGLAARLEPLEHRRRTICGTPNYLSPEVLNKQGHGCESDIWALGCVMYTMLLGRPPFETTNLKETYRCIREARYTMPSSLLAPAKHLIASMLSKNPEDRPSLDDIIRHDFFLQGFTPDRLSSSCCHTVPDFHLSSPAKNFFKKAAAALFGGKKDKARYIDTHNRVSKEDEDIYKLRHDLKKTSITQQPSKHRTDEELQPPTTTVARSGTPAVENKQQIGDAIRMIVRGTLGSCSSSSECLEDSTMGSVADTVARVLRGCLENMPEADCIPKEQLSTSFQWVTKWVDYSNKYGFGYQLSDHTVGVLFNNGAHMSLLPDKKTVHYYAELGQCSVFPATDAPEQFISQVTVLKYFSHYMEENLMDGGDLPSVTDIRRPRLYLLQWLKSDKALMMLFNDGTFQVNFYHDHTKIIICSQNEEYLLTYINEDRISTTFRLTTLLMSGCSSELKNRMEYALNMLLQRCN
# Calcium/calmodulin-dependent protein kinase kinase 1 (Homo sapiens), sequence (Q8N5S9 whole entry, looked up): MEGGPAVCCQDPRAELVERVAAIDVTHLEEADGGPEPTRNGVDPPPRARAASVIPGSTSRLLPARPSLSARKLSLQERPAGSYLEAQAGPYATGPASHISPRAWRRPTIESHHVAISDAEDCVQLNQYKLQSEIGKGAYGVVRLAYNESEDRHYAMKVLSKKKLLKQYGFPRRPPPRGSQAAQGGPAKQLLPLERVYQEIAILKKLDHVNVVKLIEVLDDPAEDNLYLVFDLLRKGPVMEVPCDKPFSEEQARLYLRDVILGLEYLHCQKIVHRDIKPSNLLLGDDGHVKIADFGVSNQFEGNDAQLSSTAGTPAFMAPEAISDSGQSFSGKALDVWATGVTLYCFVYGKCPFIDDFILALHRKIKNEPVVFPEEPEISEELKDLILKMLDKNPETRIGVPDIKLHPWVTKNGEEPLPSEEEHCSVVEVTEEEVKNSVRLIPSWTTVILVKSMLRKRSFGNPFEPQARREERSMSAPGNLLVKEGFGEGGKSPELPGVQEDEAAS
# Serine/threonine-protein kinase Nek11 (Homo sapiens), sequence (Q8NG66 whole entry): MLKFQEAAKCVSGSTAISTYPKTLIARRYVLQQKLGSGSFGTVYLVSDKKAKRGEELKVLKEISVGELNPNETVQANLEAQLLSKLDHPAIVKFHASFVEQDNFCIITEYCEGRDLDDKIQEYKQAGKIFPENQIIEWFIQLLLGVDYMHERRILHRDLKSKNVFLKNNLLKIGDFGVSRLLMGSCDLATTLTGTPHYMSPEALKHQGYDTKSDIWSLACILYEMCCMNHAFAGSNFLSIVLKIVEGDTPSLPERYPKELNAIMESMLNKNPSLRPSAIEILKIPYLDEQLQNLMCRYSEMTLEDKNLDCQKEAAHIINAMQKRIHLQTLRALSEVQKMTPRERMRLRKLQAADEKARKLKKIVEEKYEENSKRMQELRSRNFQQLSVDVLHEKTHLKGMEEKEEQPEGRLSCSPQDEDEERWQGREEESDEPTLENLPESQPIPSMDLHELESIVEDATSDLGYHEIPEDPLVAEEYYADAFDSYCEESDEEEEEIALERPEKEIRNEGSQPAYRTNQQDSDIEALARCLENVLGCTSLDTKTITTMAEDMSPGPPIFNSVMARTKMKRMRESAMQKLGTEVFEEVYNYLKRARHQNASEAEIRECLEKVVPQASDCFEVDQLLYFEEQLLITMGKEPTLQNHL
# RAC-gamma serine/threonine-protein kinase (Homo sapiens), sequence (Q9Y243 whole entry): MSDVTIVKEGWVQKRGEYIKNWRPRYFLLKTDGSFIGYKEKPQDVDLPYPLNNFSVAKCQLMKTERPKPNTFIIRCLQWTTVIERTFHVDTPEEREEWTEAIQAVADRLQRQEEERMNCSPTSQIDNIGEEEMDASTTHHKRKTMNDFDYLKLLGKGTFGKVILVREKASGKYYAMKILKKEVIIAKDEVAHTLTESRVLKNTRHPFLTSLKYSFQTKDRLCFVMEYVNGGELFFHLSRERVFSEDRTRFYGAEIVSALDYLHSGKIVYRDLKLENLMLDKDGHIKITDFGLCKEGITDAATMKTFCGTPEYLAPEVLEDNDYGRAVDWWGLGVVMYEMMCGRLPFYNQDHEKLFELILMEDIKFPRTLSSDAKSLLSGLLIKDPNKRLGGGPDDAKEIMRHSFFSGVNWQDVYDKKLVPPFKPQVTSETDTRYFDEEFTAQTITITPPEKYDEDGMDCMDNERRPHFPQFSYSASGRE
compound,measurement,setting,value
COc1cc(N2CCC(N3CCN(C)CC3)CC2)ccc1Nc1ncc(Cl)c(Nc2ccccc2P(C)(C)=O)n1 [BRIGATINIB],inhibition,[1],< 90%
same,inhibition,[2],< 90%
same,inhibition,[3],< 90%
same,IC50,[4],> 1000 nM
same,IC50,[5],136 nM
same,inhibition,[6],< 90%
same,Activity,[7],Non-Toxic
same,IC90,[8],366 nM
same,IC50,[9],24 nM
same,inhibition,[10],< 90%
same,inhibition,[11],< 90%
same,IC50,[12],27 nM
same,inhibition,[13],< 90%
same,inhibition,[14],< 90%
same,IC50,[15],> 1000 nM
same,inhibition,[16],< 90%
same,inhibition,[17],Active
same,Activity,Mus musculus,Active
same,IC50,[18],241 nM
same,IC90,[19],276 nM
same,inhibition,[20],< 90%
same,inhibition,[21],< 90%
same,IC50,[22],22 nM
same,inhibition,[23],< 90%
same,inhibition,[24],Active
same,inhibition,[25],< 90%
same,IC50,[26],493 nM
same,IC50,[27],3.5 nM
